Measurements published in PubChem BioAssay AID2060326 (Molecular Pharmacology Branch, DTP, NCI, 2025).
“And” between values parts separate entries of the source, which are not always exact repeats. Identical values can stand only once. One block for each molecule: values may come before it.

System: MDA-MB-468 multi-cell spheroids, viability
Assay: Anticancer human tumor MDA-MB-468 cell line growth inhibition [IpAb];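 also: spheroids exposed to agents for seven days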;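 as to viability, T/C: 100% = DMSO vehicle control viability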
Settings: for viability, T/C: stronger effect = lower value
Text: Combinatorial screen of targeted agents with ipatasertib and abemaciclib in multi-cell type tumor spheroids
A high-throughput screen of multi-cell type tumor spheroids was designed to identify active combinations of targeted small molecules and ipatasertib or abemaciclib. Complex spheroids include a stromal component modeled by human endothelial cells (HUVEC) and fibroblasts modeled by human mesenchymal stem cells (MSCs). The concentration ranges selected for each drug and investigational agent were based upon clinically achievable concentrations if the clinical Cmax of the agent was known.
Compounds. The drugs and investigational agents: ipatasertib (NSC767898), abemaciclib(NSC768073), selumetinib (NSC741078), trametinib (758246), adavosertib (NSC754352), everolimus (NSC733504), sapanisertib (NSC764658), vemurafenib (NSC761431), venetoclax (NSC766270), copanlisib (NSC809693), apelisib (NSC765974), palbociblib (NSC758247), vemurafenib (NSC761431), dabrafenib (NSC764134), ravoxertinib (NSC781343), BMS-387032 (NSC767048), sotorasib (NSC818433), talazoparib (NSC767125) and afursertib (NSC778305), were obtained from the National Cancer Institute (NCI) Developmental Therapeutics Program Chemical Repository. The FDA-approved anticancer drug set is available from the NCI Developmental Therapeutics Program. […] The stock solutions were prepared in dimethyl sulfoxide (DMSO, Sigma-Aldrich, St. Louis, MO, cat. D2650) at 800-fold the tested concentration and stored at -70 degrees C prior to their use. All drugs and investigational agents were tested over a range starting from a high concentration at or near the clinical Cmax and decreasing in half-log increments. If the clinical Cmax for an agent had not been determined, the highest concentration tested was 10 microM.
NCI60 Cell Culture. NCI60 cell lines were obtained from the NCI Developmental Therapeutics Program Tumor Repository. For each lot of cells, the Repository performed Applied Biosystems AmpFLSTR Identifiler testing with PCR amplification to confirm consistency with the published Identifier STR profile for each cell line. Cells were kept in continuous culture for no more than 20 passages. The optimal seeding densities for each of the cell lines at each time point assessed were determined prior to performing the concentration response studies. Briefly, the NCI60 human tumor lines were grown as monolayers in RPMI 1640 medium supplemented with 10% FBS and 2 mmol/L L-glutamine.
An additional 9 lines were from the NCI60 cell line panel including MDA-MB-231 breast carcinoma, MDA-MB-468 breast carcinoma, MCF7 breast carcinoma, Hs578T breast carcinoma, MALME-3M melanoma, SK-MEL-2 melanoma, SK-OV-3 ovarian carcinoma, DU-145 prostate carcinoma, PC-3 prostate carcinoma, all cell lines along with major genetic alterations are listed on Table 2. Pooled donor human umbilical vein endothelial cells (HUVEC, Lonza, cat. CC-2519) and human mesenchymal stem cells (hMSC, Lonza, cat. PT-2501) were purchased from Lonza (Walkersville, MD).
PDMR cell lines were grown in complete medium (DC medium): Dulbecco's modified Eagle's medium (DMEM)/F12 supplemented with 5% fetal bovine serum (FBS), 2 mM L-glutamine, 100 U/mL penicillin and 100 µg/ml streptomycin, 0.4 µg/ml hydrocortisone, 10 ng/ml epidermal growth factor (EGF) recombinant human protein, 24 µg/mL adenine, and 0.1 mg/mL primocin. During culture from frozen stock vials, PDMR cells were cultured in the same medium containing 10 µM Y-27632 (see Table 3). The PDCs were cultured in complete DMEM/F12 media without 10 microM Y-27632 dihydrochloride for at least two passages prior to the screen. The pooled donor HUVEC and hMSC were cultured in endothelial cell growth medium 2 (PromoCell, Heidelberg, Germany, cat. C-22011) and mesenchymal stem cell growth medium 2 (PromoCell, cat. C-28009), respectively. For all experiments, HUVEC and hMSC were used at passages </=5.
[…]

[1] = curve of first compound, second compound 0.1 µM
[2] = curve of first compound, second compound 0.316 µM
[3] = curve of first compound, second compound 1 µM

SMILES: Cc1nc(NC(=O)N2CCCC2C(N)=O)sc1-c1ccnc(C(C)(C)C(F)(F)F)c1 (configuration not stated) + CCN1CCN(Cc2ccc(Nc3ncc(F)c(-c4cc(F)c5nc(C)n(C(C)C)c5c4)n3)nc2)CC1
IC50 (curve of first compound, second compound 0.01 µM): 7820 nM | IC50 (curve of first compound, second compound 0.0316 µM): 5280 nM | IC50 [1]: 4970 nM | IC50 [2]: 3890 nM | IC50 [3]: 1290 nM | viability, T/C (second compound 0.01 µM, first compound 0.0316 µM): 108% | viability, T/C (second compound 0.01 µM, first compound 0.1 µM): 90.6% | viability, T/C (second compound 0.01 µM, first compound 0.316 µM): 102% | viability, T/C (second compound 0.01 µM, first compound 1 µM): 79.2% | viability, T/C (second compound 0.01 µM, first compound 3.16 µM): 102% | viability, T/C (second compound 0.01 µM, first compound 10 µM): 37.4% | viability, T/C (second compound 0.0316 µM, first compound 0.0316 µM): 77.8% | viability, T/C (second compound 0.0316 µM, first compound 0.1 µM): 83.4% | viability, T/C (second compound 0.0316 µM, first compound 0.316 µM): 68% | viability, T/C (second compound 0.0316 µM, first compound 1 µM): 86% | viability, T/C (second compound 0.0316 µM, first compound 3.16 µM): 69% | viability, T/C (second compound 0.0316 µM, first compound 10 µM): 24.4% | viability, T/C (second compound 0.1 µM, first compound 0.0316 µM): 99.8% | viability, T/C (second compound 0.1 µM, first compound 0.1 µM): 91.9% | viability, T/C (second compound 0.1 µM, first compound 0.316 µM): 98.9% | viability, T/C (second compound 0.1 µM, first compound 1 µM): 86% | viability, T/C (second compound 0.1 µM, first compound 3.16 µM): 67.3% | viability, T/C (second compound 0.1 µM, first compound 10 µM): 23.7% | viability, T/C (second compound 0.316 µM, first compound 0.0316 µM): 91% | viability, T/C (second compound 0.316 µM, first compound 0.1 µM): 89.7% | viability, T/C (second compound 0.316 µM, first compound 0.316 µM): 77.7% | viability, T/C (second compound 0.316 µM, first compound 1 µM): 79.3% | viability, T/C (second compound 0.316 µM, first compound 3.16 µM): 57.2% | viability, T/C (second compound 0.316 µM, first compound 10 µM): 16.5% | viability, T/C (second compound 1 µM, first compound 0.0316 µM): 57.9% | viability, T/C (second compound 1 µM, first compound 0.1 µM): 68.1% | viability, T/C (second compound 1 µM, first compound 0.316 µM): 62.9% | viability, T/C (second compound 1 µM, first compound 1 µM): 55.1% | viability, T/C (second compound 1 µM, first compound 3.16 µM): 30.6% | viability, T/C (second compound 1 µM, first compound 10 µM): 6.3%

IC50 (curve of compound): 495 nM and 505 nM
SMILES: C=CCn1c(=O)c2cnc(Nc3ccc(N4CCN(C)CC4)cc3)nc2n1-c1cccc(C(C)(C)O)n1
viability, T/C (compound 0.0316 µM): 80.6% and 99.8% | viability, T/C (compound 0.1 µM): 94.4% and 96.1% | viability, T/C (compound 0.316 µM): 77.9% and 78.9% | viability, T/C (compound 1 µM): 6.3% and 7.75% | viability, T/C (compound 3.16 µM): 3.1% and 3.7% | viability, T/C (compound 10 µM): 2.62% and 3.3%

SMILES: Cn1cnc2c(F)c(Nc3ccc(Br)cc3Cl)c(C(=O)NOCCO)cc21 + CC(C)NCC(C(=O)N1CCN(c2ncnc3c2C(C)CC3O)CC1)c1ccc(Cl)cc1
IC50 [1]: 435 nM | IC50 [2]: 54.8 nM | IC50 [3]: < 9.49 nM | IC50 (curve of first compound, second compound 3.16 µM): < 9.49 nM | IC50 (curve of first compound, second compound 10 µM): < 9.49 nM | viability, T/C (second compound 0.1 µM, first compound 0.00949 µM): 72.6% | viability, T/C (second compound 0.1 µM, first compound 0.03 µM): 72.2% | viability, T/C (second compound 0.1 µM, first compound 0.0949 µM): 63.4% | viability, T/C (second compound 0.1 µM, first compound 0.3 µM): 53.6% | viability, T/C (second compound 0.1 µM, first compound 0.949 µM): 41.2% | viability, T/C (second compound 0.1 µM, first compound 3 µM): 21.2% | viability, T/C (second compound 0.316 µM, first compound 0.00949 µM): 66.3% | viability, T/C (second compound 0.316 µM, first compound 0.03 µM): 49% | viability, T/C (second compound 0.316 µM, first compound 0.0949 µM): 46.7% | viability, T/C (second compound 0.316 µM, first compound 0.3 µM): 35% | viability, T/C (second compound 0.316 µM, first compound 0.949 µM): 28.8% | viability, T/C (second compound 0.316 µM, first compound 3 µM): 8.58% | viability, T/C (second compound 1 µM, first compound 0.00949 µM): 50.4% | viability, T/C (second compound 1 µM, first compound 0.03 µM): 38.7% | viability, T/C (second compound 1 µM, first compound 0.0949 µM): 41.4% | viability, T/C (second compound 1 µM, first compound 0.3 µM): 24.2% | viability, T/C (second compound 1 µM, first compound 0.949 µM): 16.6% | viability, T/C (second compound 1 µM, first compound 3 µM): 3.5% | viability, T/C (second compound 3.16 µM, first compound 0.00949 µM): 34.8% | viability, T/C (second compound 3.16 µM, first compound 0.03 µM): 28.4% | viability, T/C (second compound 3.16 µM, first compound 0.0949 µM): 22.2% | viability, T/C (second compound 3.16 µM, first compound 0.3 µM): 18% | viability, T/C (second compound 3.16 µM, first compound 0.949 µM): 5.62% | viability, T/C (second compound 3.16 µM, first compound 3 µM): 0.63% | viability, T/C (second compound 10 µM, first compound 0.00949 µM): 13.7% | viability, T/C (second compound 10 µM, first compound 0.03 µM): 13.5% | viability, T/C (second compound 10 µM, first compound 0.0949 µM): 7.27% | viability, T/C (second compound 10 µM, first compound 0.3 µM): 3.11% | viability, T/C (second compound 10 µM, first compound 0.949 µM): 0.84% | viability, T/C (second compound 10 µM, first compound 3 µM): 0.43%
